Counter-ions that a name gives are not always drawn. Like-named read-outs stand apart in the source and are kept apart here.
Experiments:
full-length CYP46A1 [1] = molecular target: T1, full-length CYP46A1 (Homo sapiens, UniProt Q9Y6A2); experiment: Inhibition/stimulation of cholesterol hydroxylase activity at fixed 43 μM test compound; type: biochemical; conditions: for inhibition of cholesterol hydroxylation (in words): FIG. 4A-4C; for CHO hydroxylation: remaining activity, None = 100, 43 μM added steroid; for Activity: cholesterol hydroxylation by CYP46A1, % of no compound; for inhibition at 43 µM: read-out: inhibition of the CYP46A1
T1 sequence (Q9Y6A2 whole entry): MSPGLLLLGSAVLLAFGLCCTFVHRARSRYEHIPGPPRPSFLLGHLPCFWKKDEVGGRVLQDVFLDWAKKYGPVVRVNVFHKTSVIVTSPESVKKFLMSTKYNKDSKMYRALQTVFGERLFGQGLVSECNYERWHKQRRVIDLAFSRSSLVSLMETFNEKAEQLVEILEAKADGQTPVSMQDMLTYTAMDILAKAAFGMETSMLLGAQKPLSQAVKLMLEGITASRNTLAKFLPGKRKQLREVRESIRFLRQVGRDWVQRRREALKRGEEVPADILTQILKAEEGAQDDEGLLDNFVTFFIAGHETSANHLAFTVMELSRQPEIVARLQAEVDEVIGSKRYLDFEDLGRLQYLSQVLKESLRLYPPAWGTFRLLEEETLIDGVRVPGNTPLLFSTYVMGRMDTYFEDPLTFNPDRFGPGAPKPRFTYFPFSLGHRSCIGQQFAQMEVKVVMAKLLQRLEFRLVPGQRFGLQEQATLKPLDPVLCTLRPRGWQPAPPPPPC

CYP46A1 [2] = molecular target: T2, CYP46A1 (Homo sapiens, UniProt Q9Y6A2); experiment: Spectral binding studies; design: 4×His (C)
Protocol: (§1) Titrations of CYP46A1dH were carried out in 50 mM KPi, pH 7.2, containing 100 mM NaCl and 0.02% Cymal-6. Steroids were added from 0.2-5 mM stocks in 2.5-45% aqueous 2-hydroxypropyl-p-cyclodextrin; clobenpropit, thioperamide, phenacetin, acetaminophen, 4′-(2-hydroxyethoxy)-acetanilide, quinine, quinidine, lansoprazole, and dapsone were dissolved in water, and tranylcypromine in 50% MetOH. The Kd and maximal absorbance change were estimated by non-linear least squares fitting using the quadratic form of the single-site binding equation (30).
Target sequence in this assay (Q9Y6A2 with tags, fused parts or gaps): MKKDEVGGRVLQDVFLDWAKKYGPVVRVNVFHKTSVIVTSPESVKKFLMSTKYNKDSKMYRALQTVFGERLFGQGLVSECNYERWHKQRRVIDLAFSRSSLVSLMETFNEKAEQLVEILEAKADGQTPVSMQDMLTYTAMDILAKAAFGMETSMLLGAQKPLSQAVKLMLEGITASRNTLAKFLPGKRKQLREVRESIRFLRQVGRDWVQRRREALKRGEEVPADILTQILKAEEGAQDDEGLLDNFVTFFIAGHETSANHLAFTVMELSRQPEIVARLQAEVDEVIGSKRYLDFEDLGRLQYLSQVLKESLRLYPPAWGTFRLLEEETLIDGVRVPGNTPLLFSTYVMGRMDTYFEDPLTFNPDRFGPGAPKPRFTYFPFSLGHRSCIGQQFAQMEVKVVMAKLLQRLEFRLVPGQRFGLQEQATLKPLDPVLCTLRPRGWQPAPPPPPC

CYP46A1 [3] = molecular target: T2, CYP46A1; experiment: Spectral binding studies; design: fused on or other part: C-terminal 4xHis tag (dH); conditions: Table 2
Protocol: as §1
Target sequence in this assay (Q9Y6A2 whole entry): as the sequence (Q9Y6A2 whole entry) above

Δ(2-50)CYP46A1dH = Δ(2-50)CYP46A1dH (Homo sapiens, UniProt Q9Y6A2); experiment: Kinetic studies, reconstituted system with cytochrome P450 reductase, truncated CYP46A1; conditions: compound as substrate; for kcat: Δ(2-50) CYP46A1 with C-terminal 4x His-tag, 37° C.
Sequence of Δ(2-50)CYP46A1dH (Q9Y6A2 with tags, fused parts or gaps): as the sequence (Q9Y6A2 with tags, fused parts or gaps) above
Protocol: (§2) The ability of recombinant CYP46A1 to metabolize CH-3S was tested using the reconstituted with cytochrome P450 reductase in vitro system. After termination of the enzyme reaction, the substrate and products were extracted, solvolyzed, converted into trimethylsilyl ethers and analyzed by gas chromatography-mass spectrometry as described (23). […] The reaction conditions were optimized for the formation of only one product.
(§3) The reconstituted system (1 ml) contained 0.1-0.25 μM P450, 0.5 μM NADPH cytochrome P450 oxidoreductase, varying concentrations of cold substrate (1-75 μM), 250,000 cpm of radiolabeled substrate, and 2U of catalase. […] The organic phase was isolated, evaporated, dissolved in acetonitrile, and subjected to HPLC. […] Substrate metabolism was <18% and linear with reaction time and enzyme concentration.

full-length CYP46A1 [4] = molecular target: T1, full-length CYP46A1; experiment: Kinetic studies, reconstituted system with cytochrome P450 reductase, full-length CYP46A1; conditions: compound as substrate; for kcat: Full-length CYP46A1 with C-terminal 4x His-tag, 37° C.
Protocol: as §2, §3

CYP46A1 [5] = molecular target: T2, CYP46A1; experiment: In vitro IC50 and Ki for CYP46A1-catalysed hydroxylation; type: biochemical; design: Recombinant full-length human CYPs 46A1 and 27A1 and bovine CYP11A1 were expressed and purified; made in house; conditions: Ki = IC50/2 assuming competitive inhibition; 5.4 μM cholesterol (at Km); read-out: Ki
Protocol: Cholesterol hydroxylation by CYP46A1 was assayed for 20 min at 37° C. in 1 ml of 50 mM KPi, pH 7.2, containing 100 mM NaCl, 0.02% Cymal 6, 40 μg dilauroylglycerol-3-phosphatidylcholine and 2U of catalase. […] The enzymatic reaction was initiated by NADPH (final 1 mM) and terminated by vortexing with 2 ml of CH2Cl2. The organic phase was isolated, evaporated, dissolved in methanol, and subjected to HPLC. […] In addition, the Ki for cholesterol 24-hydroxylation was estimated assuming a model of competitive inhibition.
Target sequence in this assay (Q9Y6A2 whole entry): as the sequence (Q9Y6A2 whole entry) above

[6] = 2.7 μM cholesterol, 43 μM compound
[7] = 2.7 μM cholesterol, 43 μM compound, FIG. 4B, 4D, 4E

Clc1ccc(-c2c[nH]cn2)cc1 [4-CPi, 4-(4-chlorophenyl)imidazole]
inhibition of cholesterol hydroxylation (in words) (full-length CYP46A1 [1]; [6]): significant inhibition

C[C@]12CC[C@@H]3c4ccc(O)cc4CC[C@H]3[C@@H]1CC[C@@H]2O [Estradiol]
CHO hydroxylation (full-length CYP46A1 [1]; 2.7 μM cholesterol): 32 ± 3%

C[C@]12CC[C@H]3[C@@H](CCC4=CC(=O)CC[C@@]43C)[C@@H]1CC[C@@H]2O [Testosterone]
CHO hydroxylation (full-length CYP46A1 [1]; 2.7 μM cholesterol): 49 ± 4%

DHEA sulfate [DHEA-SO4]
CHO hydroxylation (full-length CYP46A1 [1]; 2.7 μM cholesterol): 33 ± 3%

CC(=O)Nc1ccc(OCCO)cc1 [Phenacetin analog 1, 4′-(2-hydroxyethoxy)-acetanilide]
increase (stimulation) of cholesterol 24-hydroxylation (full-length CYP46A1 [1]; 43 μM compound): 45%
Activity (full-length CYP46A1 [1]; 43 μM compound): 145 ± 5%

CC(C)CCC[C@@H](C)[C@H]1CC[C@H]2[C@@H]3CC=C4C[C@@H](OS(=O)(=O)O)CC[C@]4(C)[C@H]3CC[C@]12C [Cholesterol-SO4, cholesterol sulfate]
Kd (CYP46A1 [2]): 0.007 µM
Kd (CYP46A1 [3]): 0.05 ± 0.003 µM
kcat (Δ(2-50)CYP46A1dH): 0.0417 s⁻¹
kcat (full-length CYP46A1 [4]): 0.00767 s⁻¹

NC(N)=Nc1nc(CSCCC(N)=NS(N)(=O)=O)cs1 [famotidine]
inhibition of cholesterol hydroxylation (in words) (full-length CYP46A1 [1]; [6]): inhibited cholesterol hydroxylation

NC(=NCc1ccc(Cl)cc1)SCCCc1cnc[nH]1 [clobenpropit]
inhibition at 43 µM (full-length CYP46A1 [1]): > 90%

estradiol sulfate [Estradiol-SO4]
CHO hydroxylation (full-length CYP46A1 [1]; 2.7 μM cholesterol): 27 ± 2%

CCOc1ccc(NC(C)=O)cc1 [Phenacetin]
Activity (full-length CYP46A1 [1]; 43 μM compound): 135 ± 5%

CNC(=C[N+](=O)[O-])NCCSCc1ccc(CN(C)C)o1 [ranitidine]
inhibition at 43 µM (full-length CYP46A1 [1]; [7]): > 90%

CC(C)[C@@H](O)CC[C@@H](C)[C@H]1CC[C@H]2[C@@H]3CC=C4C[C@@H](O)CC[C@]4(C)[C@H]3CC[C@]12C [24OH—CH, 24S-hydroxycholesterol]
Km (Δ(2-50)CYP46A1dH; Δ(2-50) CYP46A1): 1.5 µM
kcat (Δ(2-50)CYP46A1dH): 0.0142 s⁻¹
Km (full-length CYP46A1 [4]; Full-length CYP46A1): 3.9 µM
kcat (full-length CYP46A1 [4]): 0.0153 s⁻¹

testosterone sulfate [Testosterone-SO4]
CHO hydroxylation (full-length CYP46A1 [1]; 2.7 μM cholesterol): 40 ± 2%

CC(=O)[C@H]1CC[C@H]2[C@@H]3CC=C4C[C@@H](O)CC[C@]4(C)[C@H]3CC[C@]12C [Pregnenolone]
CHO hydroxylation (full-length CYP46A1 [1]; 2.7 μM cholesterol): 32 ± 1%
Spectral Kd (CYP46A1 [3]): Not determined, no spectral

S=C(NC1CCCCC1)N1CCC(c2cnc[nH]2)CC1 [thioperamide]
inhibition of cholesterol hydroxylation (in words) (full-length CYP46A1 [1]; [6]): inhibited cholesterol hydroxylation

Clc1ccccc1C(c1ccccc1)(c1ccccc1)n1ccnc1 [clotrimazole]
inhibition of cholesterol hydroxylation (in words) (full-length CYP46A1 [1]; [6]): significant inhibition

CN/C(=N/CCSCc1nc[nH]c1C)NC#N [cimetidine]
inhibition at 43 µM (full-length CYP46A1 [1]; [7]): > 90%

Cc1cccc(C)c1OCC(C)N (stereo not shown) [Mexiletine]
Activity (full-length CYP46A1 [1]; 43 μM compound): 107 ± 3%

DHEA
CHO hydroxylation (full-length CYP46A1 [1]; 2.7 μM cholesterol): 58 ± 3%

Acetaminophen
Activity (full-length CYP46A1 [1]; 43 μM compound): 132 ± 4%

CC(C)CCC[C@@H](C)[C@H]1CC[C@H]2[C@@H]3CC=C4C[C@@H](O)CC[C@]4(C)[C@H]3CC[C@]12C [Cholesterol]
CHO hydroxylation (full-length CYP46A1 [1]; 2.7 μM cholesterol): 27 ± 3%
Kd (CYP46A1 [2]; Δ(2-50)CYP46A1dH, read-out: estimated Kd): 0.1 µM
Kd (CYP46A1 [3]): 0.67 ± 0.02 µM

pregnenolone sulfate [Pregnenolone-SO4]
CHO hydroxylation (full-length CYP46A1 [1]; 2.7 μM cholesterol): 8 ± 2%
Ki (CYP46A1 [5]): 2.5 µM

CNC(=C[N+](=O)[O-])NCCSCc1csc(CN(C)C)n1 [nizatidine]
inhibition of cholesterol hydroxylation (in words) (full-length CYP46A1 [1]; [6]): inhibited cholesterol hydroxylation

From patent publication US20170182047A9, “Post-Translational Regulation of Catalytic Activities of Cytochrome P450 46A1 and Uses Thereof” (The Board of Regents of the University of Texas System, priority 2007, published 2017)
